Series [1] is described as follows: WR peptide solubility (supernatant to pellet ratio after centrifugation). Type of series: physicochemical. The conditions noted are these: 0.1 and 0.2 mg/mL. The protocol: FIGS. 7A-7H provide data and illustrations related to the fibrillation propensities of NANOG WR-derived peptides. FIG. 7A illustrates NANOG domain organization and the human and mouse NANOG WR-derived peptides used in Example 2. […] Right panels show aggregation kinetics for peptides 1-3 w (top) and 1-4 w (bottom) after 1 min equilibration. Similar results were obtained from two independent experiments. […] Similar results were obtained from two independent experiments. […] Similar results were obtained from two independent experiments. […] Similar results were obtained from two independent preparations. […]
(§1) Amino acids of the synthesized peptides were classified into aromatic, polar, charged and structure breakers (FIG. 7B). Applicant observed a striking degree of correlation between amino acid type distribution, and the peptide's solubilities and aggregation propensities, as monitored by Thioflavin T (ThT, amyloid binding dye) aggregation kinetics assay (FIGS. 7B-7D). Formation of β-sheet fibrils were confirmed by CD spectroscopy and Transmission Electron Microscopy. Hydrophobic/aromatic residues as well as polar residues such as Gln and Asn are commonly found in amyloid or prion-like domains. On the other hand, charged and ‘structure breaker’ residues such as Gly and Pro contribute to the peptide's higher solubility. […] Aggregation kinetics was rapid; 1-4w reached maximal ThT fluorescence within 2-3 min and 1-3w ˜20 min (FIG. 7D).

The nature of series [2]: WR peptide aggregation kinetics by ThT fluorescence. Type of series: physicochemical. The protocol: FIGS. 7A-7H provide data and illustrations related to the fibrillation propensities of NANOG WR-derived peptides. FIG. 7A illustrates NANOG domain organization and the human and mouse NANOG WR-derived peptides used in Example 2. […] Right panels show aggregation kinetics for peptides 1-3 w (top) and 1-4 w (bottom) after 1 min equilibration. Similar results were obtained from two independent experiments. […] Similar results were obtained from two independent experiments. […] Similar results were obtained from two independent experiments. […] Similar results were obtained from two independent preparations.
as §1, with “domains.” for “domains. On the other hand, charged and ‘structure breaker’ residues such as Gly and Pro contribute to the peptide's higher solubility.”

Residues, ends and D or L forms follow the SMILES beside them.

With `C[C@@H](O)[C@H](NC(=O)[C@H](CO)NC(=O)[C@H](CC(N)=O)NC(=O)[C@H](CC(N)=O)NC(=O)[C@H](Cc1c[nH]c2ccccc12)NC(=O)[C@@H](NC(=O)[C@H](CCC(N)=O)NC(=O)[C@H](CC(N)=O)NC(=O)[C@H](CO)NC(=O)[C@@H](N)Cc1c[nH]c2ccccc12)[C@@H](C)O)C(=O)N[C@@H](CCCCN)C(=O)O` [1-2w] (H-WSNQTWNNSTK-OH; N-terminus and C-terminus assumed), the peptide solubility result in series [1] is “very soluble”.

Turning to `C[C@@H](O)[C@H](NC(=O)[C@H](CCC(N)=O)NC(=O)[C@H](CC(N)=O)NC(=O)[C@H](CO)NC(=O)[C@H](Cc1c[nH]c2ccccc12)NC(=O)[C@@H](NC(=O)[C@H](CO)NC(=O)[C@H](CC(N)=O)NC(=O)[C@H](CC(N)=O)NC(=O)[C@H](Cc1c[nH]c2ccccc12)NC(=O)[C@@H](NC(=O)[C@H](CCC(N)=O)NC(=O)[C@H](CC(N)=O)NC(=O)[C@H](CO)NC(=O)[C@@H](N)Cc1c[nH]c2ccccc12)[C@@H](C)O)[C@@H](C)O)C(=O)N[C@@H](CCCNC(=N)N)C(=O)N[C@@H](CCCNC(=N)N)C(=O)N[C@@H](CCCNC(=N)N)C(=O)N[C@@H](CCCNC(=N)N)C(=O)N[C@@H](CCCNC(=N)N)C(=O)N[C@@H](CCCNC(=N)N)C(=O)N[C@@H](CCCCN)C(=O)N[C@@H](CCCCN)C(=O)N[C@@H](CS)C(=O)O` [1-3wRRK] (H-WSNQTWNNSTWSNQTRRRRRRKKC-OH; N-terminus and C-terminus assumed), the peptide solubility result in series [1] is recorded as “very soluble”.

For the molecule `C[C@@H](O)[C@H](NC(=O)[C@H](CCC(N)=O)NC(=O)[C@H](CC(N)=O)NC(=O)[C@H](CO)NC(=O)[C@H](Cc1c[nH]c2ccccc12)NC(=O)[C@@H](NC(=O)[C@H](CO)NC(=O)[C@H](CC(N)=O)NC(=O)[C@H](CC(N)=O)NC(=O)[C@H](Cc1c[nH]c2ccccc12)NC(=O)[C@@H](NC(=O)[C@H](CCC(N)=O)NC(=O)[C@H](CC(N)=O)NC(=O)[C@H](CO)NC(=O)[C@@H](N)Cc1c[nH]c2ccccc12)[C@@H](C)O)[C@@H](C)O)C(=O)N[C@@H](CCCCN)C(=O)O` [1-3w] (H-WSNQTWNNSTWSNQTK-OH; N-terminus and C-terminus assumed), the peptide solubility result in series [1] is on record as “more insoluble”.

Take `CC[C@H](C)[C@H](NC(=O)[C@H](CC(N)=O)NC(=O)[C@H](CCC(N)=O)NC(=O)[C@@H](NC(=O)[C@H](CCC(N)=O)NC(=O)[C@H](CC(N)=O)NC(=O)[C@H](CO)NC(=O)[C@H](Cc1c[nH]c2ccccc12)NC(=O)[C@@H](NC(=O)[C@H](CO)NC(=O)[C@H](CC(N)=O)NC(=O)[C@H](CC(N)=O)NC(=O)[C@H](Cc1c[nH]c2ccccc12)NC(=O)[C@@H](NC(=O)[C@H](CCC(N)=O)NC(=O)[C@H](CC(N)=O)NC(=O)[C@H](CO)NC(=O)[C@@H](N)Cc1c[nH]c2ccccc12)[C@@H](C)O)[C@@H](C)O)[C@@H](C)O)C(=O)N[C@@H](CCC(N)=O)C(=O)N[C@@H](CO)C(=O)N[C@@H](Cc1c[nH]c2ccccc12)C(=O)N[C@@H](CO)C(=O)N[C@@H](CC(N)=O)C(=O)N[C@@H](Cc1c[nH]cn1)C(=O)N[C@@H](CO)C(=O)N[C@@H](CCCCN)C(=O)O` [1-4w] (H-WSNQTWNNSTWSNQTQNIQSWSNHSK-OH; N-terminus and C-terminus assumed): the peptide solubility entry in series [1] was “more insoluble”.

Turning to `CC[C@H](C)[C@H](NC(=O)[C@H](CC(N)=O)NC(=O)[C@H](CCC(N)=O)NC(=O)[C@@H](NC(=O)[C@H](CCC(N)=O)NC(=O)[C@H](CC(N)=O)NC(=O)[C@H](CO)NC(=O)[C@H](C)NC(=O)[C@@H](NC(=O)[C@H](CO)NC(=O)[C@H](CC(N)=O)NC(=O)[C@H](CC(N)=O)NC(=O)[C@H](C)NC(=O)[C@@H](NC(=O)[C@H](CCC(N)=O)NC(=O)[C@H](CC(N)=O)NC(=O)[C@H](CO)NC(=O)[C@H](C)N)[C@@H](C)O)[C@@H](C)O)[C@@H](C)O)C(=O)N[C@@H](CCC(N)=O)C(=O)N[C@@H](CO)C(=O)N[C@@H](Cc1c[nH]c2ccccc12)C(=O)N[C@@H](CO)C(=O)N[C@@H](CC(N)=O)C(=O)N[C@@H](Cc1c[nH]cn1)C(=O)N[C@@H](CO)C(=O)N[C@@H](CCCCN)C(=O)O` [1-4wa] (H-ASNQTANNSTASNQTQNIQSWSNHSK-OH; N-terminus and C-terminus assumed), the peptide solubility entry in series [1] is reported as “increased solubility”.

Turning to `C[C@@H](O)[C@H](NC(=O)[C@H](CCC(N)=O)NC(=O)[C@H](CC(N)=O)NC(=O)[C@H](CO)NC(=O)[C@@H](N)Cc1c[nH]c2ccccc12)C(=O)N[C@@H](CCCCN)C(=O)O` [1w, WSNQTK] (H-WSNQTK-OH; N-terminus and C-terminus assumed), the peptide solubility entry in series [1] is reported as “very soluble”.

Consider `C[C@@H](O)[C@H](NC(=O)[C@H](CCC(N)=O)NC(=O)[C@H](CC(N)=O)NC(=O)[C@H](CC(N)=O)NC(=O)[C@H](Cc1c[nH]c2ccccc12)NC(=O)[C@@H](NC(=O)[C@@H]1CCCN1C(=O)[C@H](CC(N)=O)NC(=O)[C@@H](NC(=O)[C@H](Cc1c[nH]c2ccccc12)NC(=O)[C@@H](NC(=O)[C@H](CCC(N)=O)NC(=O)[C@H](CO)NC(=O)[C@H](CO)NC(=O)[C@H](Cc1c[nH]c2ccccc12)NC(=O)[C@@H](NC(=O)[C@@H]1CCCN1C(=O)[C@H](CC(N)=O)NC(=O)[C@@H](NC(=O)[C@H](Cc1c[nH]c2ccccc12)NC(=O)[C@@H](NC(=O)[C@H](CCC(N)=O)NC(=O)[C@H](CO)NC(=O)CNC(=O)[C@@H](N)Cc1c[nH]c2ccccc12)[C@@H](C)O)[C@@H](C)O)[C@@H](C)O)[C@@H](C)O)[C@@H](C)O)[C@@H](C)O)C(=O)N[C@@H](CCCCN)C(=O)O` [m1-5w] (H-WGSQTWTNPTWSSQTWTNPTWNNQTK-OH; N-terminus and C-terminus assumed), for which the peptide solubility entry in series [1] is listed as “relatively higher solubility”.

In the case of `C[C@H](NC(=O)[C@H](CCC(N)=O)NC(=O)[C@H](CO)NC(=O)[C@H](CO)NC(=O)[C@H](Cc1c[nH]c2ccccc12)NC(=O)[C@@H](NC(=O)[C@@H]1CCCN1C(=O)[C@H](CC(N)=O)NC(=O)[C@@H](NC(=O)[C@@H](N)Cc1c[nH]c2ccccc12)[C@@H](C)O)[C@@H](C)O)C(=O)N[C@@H](Cc1c[nH]c2ccccc12)C(=O)N[C@H](C(=O)N[C@@H](C)C(=O)N[C@@H](CCC(N)=O)C(=O)N[C@@H](CO)C(=O)N[C@@H](Cc1c[nH]c2ccccc12)C(=O)N[C@@H](CC(N)=O)C(=O)NCC(=O)N[C@@H](CCC(N)=O)C(=O)N1CCC[C@H]1C(=O)N[C@@H](Cc1c[nH]c2ccccc12)C(=O)N[C@@H](CC(N)=O)C(=O)N[C@@H](C)C(=O)N[C@@H](C)C(=O)N1CCC[C@H]1C(=O)N[C@@H](CCCCN)C(=O)O)[C@@H](C)O` [m6-10w] (H-WTNPTWSSQAWTAQSWNGQPWNAAPK-OH; N-terminus and C-terminus assumed), the peptide solubility result in series [1] was “relatively higher solubility”.

Take “WCTQSWNNQAWNSPFYNCGEESK [6-8w, human C-terminal WR repeats]”: the peptide solubility result in series [1] is reported as “relatively higher solubility”. Further, in series [2], the “aggregation kinetics” value is “slower aggregation kinetics”.

For the molecule “WNTQTWCTQSWNNQAWNSPFYNCGEESK [5-8w, human C-terminal WR repeats]”, the peptide solubility result in series [1] is reported as “relatively higher solubility”. Further, the “aggregation kinetics” value in series [2] is recorded as “slower aggregation kinetics”.
